Where a name gives a salt, the structure may show the parent alone. Read-outs that look alike come from different tables or passages of the source.
Columns and labels:
ROCK 2 = target: T1, ROCK 2 (Homo sapiens, UniProt O75116); assay: Rho kinase assay (IMAP ROCK-II kit, fluorescence polarization); type: biochemical
T1 construct: purchased Molecular Devices, Sunnyvale, Calif
Experimental: (§1) The rho kinase assays were performed using a Biomek 2000 Robotic Workstation (Beckman Instruments, Palo Alto, Calif.) in a 96-well plate format. The assay was performed utilizing the IMAP ROCK-I and ROCK-II kits (Molecular Devices, Sunnyvale, Calif.) as follows. […] The substrate, enzyme, and ATP dilutions were made with the reaction buffer provided by the vendor. Test compounds were diluted in 10:10 DMSO-ethanol (vol/vol). For the actual assay, the various components were added into black, clear bottom, 96-well plates (Costar, Corning, N.Y.) in a final volume of 20μl per well. After the enzyme reaction (60 min at 23° C.), 60 μl of the binding solution was added per well and incubated for an additional 30 minutes in the dark at 23° C. Fluorescence polarization of the reaction mixtures was then measured on the Analyst™ HT instrument (Molecular Devices, Sunnyvale, Calif.).

ROCK 1 = ROCK 1 (Homo sapiens, UniProt Q13464); assay: Rho kinase assay (IMAP ROCK-I kit, fluorescence polarization)
Experimental: as §1

[1] = substrate 200 nM, ATP 10 μM, 60 min at 23° C.

Chain of ROCK 1 (Q13464 whole entry, species assumed): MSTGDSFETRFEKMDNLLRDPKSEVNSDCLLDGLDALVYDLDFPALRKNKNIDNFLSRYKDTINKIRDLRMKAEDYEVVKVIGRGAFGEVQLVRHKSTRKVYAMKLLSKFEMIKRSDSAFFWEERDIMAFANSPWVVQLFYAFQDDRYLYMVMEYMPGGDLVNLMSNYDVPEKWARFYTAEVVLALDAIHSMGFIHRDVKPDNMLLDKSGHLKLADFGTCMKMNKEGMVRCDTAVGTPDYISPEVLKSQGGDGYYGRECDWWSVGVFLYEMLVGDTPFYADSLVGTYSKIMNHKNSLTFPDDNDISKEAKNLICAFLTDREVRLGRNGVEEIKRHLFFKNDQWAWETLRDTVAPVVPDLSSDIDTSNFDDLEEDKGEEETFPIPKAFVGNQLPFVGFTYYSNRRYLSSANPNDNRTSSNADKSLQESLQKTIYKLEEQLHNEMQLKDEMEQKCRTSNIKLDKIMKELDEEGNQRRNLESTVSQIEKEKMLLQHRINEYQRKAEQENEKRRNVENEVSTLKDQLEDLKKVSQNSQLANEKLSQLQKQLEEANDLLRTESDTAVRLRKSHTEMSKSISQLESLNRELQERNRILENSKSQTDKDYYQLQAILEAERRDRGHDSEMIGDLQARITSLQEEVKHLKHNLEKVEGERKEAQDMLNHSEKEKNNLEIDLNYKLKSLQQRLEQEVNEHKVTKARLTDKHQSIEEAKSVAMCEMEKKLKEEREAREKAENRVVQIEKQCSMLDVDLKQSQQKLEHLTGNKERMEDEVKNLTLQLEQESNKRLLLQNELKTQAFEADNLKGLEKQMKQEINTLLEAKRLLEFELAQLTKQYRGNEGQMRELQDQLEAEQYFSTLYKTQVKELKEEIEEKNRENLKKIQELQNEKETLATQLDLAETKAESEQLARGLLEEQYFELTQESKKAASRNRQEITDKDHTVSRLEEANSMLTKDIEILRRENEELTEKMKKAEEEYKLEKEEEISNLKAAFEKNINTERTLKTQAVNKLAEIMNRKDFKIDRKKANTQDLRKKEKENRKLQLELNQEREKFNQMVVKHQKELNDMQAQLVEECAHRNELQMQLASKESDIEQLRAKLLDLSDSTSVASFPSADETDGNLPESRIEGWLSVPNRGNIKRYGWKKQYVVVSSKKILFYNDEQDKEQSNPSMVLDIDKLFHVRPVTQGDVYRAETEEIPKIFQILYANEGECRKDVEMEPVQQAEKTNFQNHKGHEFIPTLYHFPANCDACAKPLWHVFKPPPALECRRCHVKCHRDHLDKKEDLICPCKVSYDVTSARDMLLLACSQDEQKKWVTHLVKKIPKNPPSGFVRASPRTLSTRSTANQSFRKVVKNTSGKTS
T1 sequence (O75116 whole entry, species assumed): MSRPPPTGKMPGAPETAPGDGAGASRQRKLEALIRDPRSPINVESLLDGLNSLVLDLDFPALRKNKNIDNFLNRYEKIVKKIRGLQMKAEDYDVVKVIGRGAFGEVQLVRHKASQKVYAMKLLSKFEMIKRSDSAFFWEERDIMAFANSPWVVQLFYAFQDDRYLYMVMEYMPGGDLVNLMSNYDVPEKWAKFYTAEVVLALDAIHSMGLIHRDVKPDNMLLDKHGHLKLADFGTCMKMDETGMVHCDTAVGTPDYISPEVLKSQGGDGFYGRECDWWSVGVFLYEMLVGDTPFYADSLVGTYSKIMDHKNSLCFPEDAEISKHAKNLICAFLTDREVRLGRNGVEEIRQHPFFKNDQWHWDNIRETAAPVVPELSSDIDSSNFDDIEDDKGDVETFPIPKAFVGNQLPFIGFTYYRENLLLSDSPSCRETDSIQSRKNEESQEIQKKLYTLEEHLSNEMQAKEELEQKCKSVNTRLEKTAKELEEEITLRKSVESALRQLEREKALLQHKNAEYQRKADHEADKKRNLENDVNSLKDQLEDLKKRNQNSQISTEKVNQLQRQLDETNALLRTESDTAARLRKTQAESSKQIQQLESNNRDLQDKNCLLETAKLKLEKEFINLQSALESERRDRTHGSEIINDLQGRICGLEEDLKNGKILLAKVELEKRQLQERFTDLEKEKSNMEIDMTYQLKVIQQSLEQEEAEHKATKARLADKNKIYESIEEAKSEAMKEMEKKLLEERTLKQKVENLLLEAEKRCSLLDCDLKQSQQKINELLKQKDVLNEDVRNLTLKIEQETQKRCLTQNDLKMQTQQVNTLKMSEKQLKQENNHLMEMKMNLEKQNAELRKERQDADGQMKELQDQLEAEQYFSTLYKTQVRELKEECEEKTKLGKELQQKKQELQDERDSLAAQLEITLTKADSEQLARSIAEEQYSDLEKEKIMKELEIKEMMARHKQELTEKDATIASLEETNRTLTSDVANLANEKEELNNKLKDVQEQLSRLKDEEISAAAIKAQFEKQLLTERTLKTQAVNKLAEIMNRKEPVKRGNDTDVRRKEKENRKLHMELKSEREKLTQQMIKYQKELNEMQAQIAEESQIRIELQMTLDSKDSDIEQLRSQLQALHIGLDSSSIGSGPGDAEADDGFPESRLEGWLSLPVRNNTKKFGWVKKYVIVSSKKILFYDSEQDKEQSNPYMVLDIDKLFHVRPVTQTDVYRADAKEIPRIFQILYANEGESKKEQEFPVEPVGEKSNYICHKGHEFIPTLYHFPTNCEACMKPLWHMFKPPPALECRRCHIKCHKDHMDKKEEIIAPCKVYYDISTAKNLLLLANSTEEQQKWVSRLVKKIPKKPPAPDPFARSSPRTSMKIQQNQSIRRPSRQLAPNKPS

Work on `CCCC/C=C/c1cnc2ccc(NCCCCO)nn12` [Example 37, (E)-4-(3-(Hex-1-enyl)imidazo[1,2-b]pyridazin-6-ylamino)butan-1-ol hydrochloride] yielded an IC50 (ROCK 2; [1]) of 13 µM and an IC50 (ROCK 1) of 23 µM.

`Cc1cnc2ccc(NCCN(C)C)nn12` [Example 11, N^1,N^1-Dimethyl-N^2-(3-methylimidazo[1,2-b]pyridazin-6-yl)ethane-1,2-diamine] was tested, and the IC50 (ROCK 2; [1]) was 79 µM and the IC50 (ROCK 1) was 36 µM.

`CCCC/C=C/c1cnc2ccc(NCCCN3CCCC3)nn12` [Example 47, (E)-3-(Hex-1-enyl)-N-(3-(pyrrolidin-1-yl)propyl)imidazo[1,2-b]pyridazin-6-amine dihydrochloride] showed an IC50 (ROCK 2) of 38 µM and an IC50 (ROCK 1) of 59 µM.

`CCCCCCc1cnc2ccc(NCc3ccccn3)nn12` [Example 29, 3-Hexyl-N-(pyridin-2-ylmethyl)imidazo[1,2-b]pyridazin-6-amine hydrochloride] was tested, and the IC50 (ROCK 2; [1]) was 17 µM and the IC50 (ROCK 1) was 42 µM.

Work on `CCCCC#Cc1cnc2ccc(NCCCN3CCOCC3)nn12` [Example 26, 3-(Hex-1-ynyl)-N-(3-morpholinopropyl)imidazo[1,2-b]pyridazin-6-amine hydrochloride] yielded an IC50 (ROCK 2; [1]) of 5.8 µM and an IC50 (ROCK 1) of 9 µM.

With `CCCC/C=C/c1cnc2ccc(N[C@H]3CC[C@H](O)CC3)nn12` [Example 49, Anti-(E)-4-(3-(Hex-1-enyl)imidazo[1,2-b]pyridazin-6-ylamino)cyclohexanol] the IC50 (ROCK 2; [1]) was 29 µM and the IC50 (ROCK 1) was 13 µM.

Molecule `CCC/C=C/c1cnc2ccc(NCc3ccccn3)nn12` [Example 19, (E)-3-(Pent-1-enyl)-N-(pyridin-2-ylmethyl)imidazo[1,2-b]pyridazin-6-amine hydrochloride] has an IC50 (ROCK 2; [1]) of 2 µM and an IC50 (ROCK 1) of 2.1 µM.

`Cc1n[nH]c2ccc(-c3cnc4ccc(NC5CCCNC5)nn34)cc12` (centres unmarked) [Example 53, [3-(3-methyl-1H-indazol-5-yl)-imidazo[1,2-b]pyridazine-6-yl]-piperidin-3-yl-amine trihydrochloride] was tested, and the IC50 (ROCK 2; [1]) was 0.073 µM and the IC50 (ROCK 1) was 0.082 µM.

Molecule `CCCC/C=C/c1cnc2ccc(NCc3ccncc3)nn12` [Example 43, (E)-3-(Hex-1-enyl)-N-(pyridin-4-ylmethyl)imidazo[1,2-b]pyridazin-6-amine] has an IC50 (ROCK 2; [1]) of 11 µM and an IC50 (ROCK 1) of 4.3 µM.

`CCCC/C=C/c1cnc2ccc(N3CCOCC3)nn12` [Example 5, (E)-4-(3-(Hex-1-enyl)imidazo[1,2-b]pyridazin-6-yl)morpholine fumarate] showed an IC50 (ROCK 2; [1]) greater than 100 µM and an IC50 (ROCK 1) of 9.7 µM.

`CCCC/C=C/c1cnc2ccc(NCc3ccccn3)nn12` [Example 9, (E)-3-(Hex-1-enyl)-N-(pyridin-2-ylmethyl)imidazo[1,2-b]pyridazin-6-amine fumarate] showed an IC50 (ROCK 2; [1]) of 3.7 µM and an IC50 (ROCK 1) of 7 µM.

Work on `CCCC/C=C/c1cnc2ccc(NCCCN(C)C)nn12` [Example 39, (E)-N^1-(3-(Hex-1-enyl)imidazo[1,2-b]pyridazin-6-yl)-N^3,N^3-dimethylpropane-1,3-diamine hydrochloride] yielded an IC50 (ROCK 2; [1]) of 0.77 µM and an IC50 (ROCK 1) of 1.1 µM.

With `CCCCCCc1cnc2ccc(NCCCN3CCOCC3)nn12` [Example 17, 3-Hexyl-N-(3-morpholinopropyl)imidazo[1,2-b]pyridazin-6-amine hydrochloride] the IC50 (ROCK 2; [1]) was greater than 100 µM and the IC50 (ROCK 1) was 28 µM.

Work on `CCCC/C=C/c1cnc2ccc(NCCO)nn12` [Example 42, (E)-2-(3-(Hex-1-enyl)imidazo[1,2-b]pyridazin-6-ylamino)ethanol hydrochloride] yielded an IC50 (ROCK 2; [1]) of 34 µM and an IC50 (ROCK 1) of 17 µM.

Molecule `CCCC/C=C/c1cnc2ccc(NCCCN)nn12` [Example 48, (E)-N^1-(3-(Hex-1-enyl)imidazo[1,2-b]pyridazin-6-yl)propane-1,3-diamine] has an IC50 (ROCK 2; [1]) of 58 µM and an IC50 (ROCK 1) of 57 µM.

`CCCC/C=C/c1cnc2ccc(NCCCCN(C)C)nn12` [Example 46, (E)-N^1-(3-(Hex-1-enyl)imidazo[1,2-b]pyridazin-6-yl)-N^4,N^4-dimethylbutane-1,4-diamine] gave an IC50 (ROCK 2; [1]) of 8.2 µM and an IC50 (ROCK 1) of 5 µM.

In the case of `CCCC/C=C/c1cnc2ccc(N[C@H]3CC[C@@H](O)CC3)nn12` [Example 50, Syn-(E)-4-(3-(Hex-1-enyl)imidazo[1,2-b]pyridazin-6-ylamino)cyclohexanol hydrochloride], the IC50 (ROCK 2; [1]) is reported as 17 µM and the IC50 (ROCK 1) is reported as 6 µM.

In the case of `CCCC/C=C/c1cnc2ccc(NCCCO)nn12` [Example 6, (E)-3-(3-(Hex-1-enyl)imidazo [1,2-b]pyridazin-6-ylamino)propan-1-ol fumarate], the IC50 (ROCK 2; [1]) is reported as 33 µM and the IC50 (ROCK 1) is reported as 30 µM.

`COCCNc1ccc2ncc(C)n2n1` [Example 12, N-(2-Methoxyethyl)-3-methylimidazo[1,2-b]pyridazin-6-amine] gave an IC50 (ROCK 2; [1]) of 97 µM and an IC50 (ROCK 1) greater than 100 µM.

Molecule `CCCC/C=C/c1cnc2ccc(NCCN(C)C)nn12` [Example 8, (E)-N^1-(3-(Hex-1-enyl)imidazo[1,2-b]pyridazin-6-yl)-N^2,N^2-dimethylethane-1,2-diamine fumarate] has an IC50 (ROCK 2; [1]) of 65 µM and an IC50 (ROCK 1) of 58 µM.

`Clc1cnc2ccc(NCCCN3CCOCC3)nn12` [Example 14, 3-Chloro-N-(3-morpholinopropyl)imidazo[1,2-b]pyridazin-6-amine hydrochloride] gave an IC50 (ROCK 1) of 37 µM.

Molecule `COc1ccccc1-c1cnc2ccc(NCc3ccccn3)nn12` [Example 2, 3-(2-Methoxyphenyl)-N-(pyridin-2-ylmethyl)imidazo[1,2-b]pyridazin-6-amine fumarate] has an IC50 (ROCK 2; [1]) greater than 100 µM and an IC50 (ROCK 1) greater than 100 µM.

Molecule `c1n[nH]cc1-c1cnc2ccc(N3CCCNCC3)nn12` [Example 56, 6-Perhydro-1,4-diazepin-1-yl-3-(1H-pyrazol-4-yl)-imidazo[1,2-b]pyridazine dihydrochloride] has an IC50 (ROCK 2; [1]) of 6.7 µM and an IC50 (ROCK 1) of 18 µM.

`CCOCc1cnc2ccc(NCc3ccccn3)nn12` [Example 32, 3-(Ethoxymethyl)-N-(pyridin-2-ylmethyl)imidazo[1,2-b]pyridazin-6-amine hydrochloride] was tested, and the IC50 (ROCK 2; [1]) was greater than 100 µM and the IC50 (ROCK 1) was greater than 100 µM.

Work on `CCCC/C=C/c1cnc2ccc(NCCCN3CCN(C)CC3)nn12` [Example 38, (E)-3-(Hex-1-enyl)-N-(3-(4-methylpiperazin-1-yl)propyl)imidazo[1,2-b]pyridazin-6-amine hydrochloride] yielded an IC50 (ROCK 2; [1]) of 97 µM and an IC50 (ROCK 1) of 47 µM.

In the case of `OCc1cnc2ccc(NCCCN3CCOCC3)nn12` [Example 24, (6-(3-Morpholinopropylamino)imidazo[1,2-b]pyridazin-3-yl)methanol hydrochloride], the IC50 (ROCK 2; [1]) is reported as greater than 100 µM and the IC50 (ROCK 1) is reported as greater than 100 µM.

`Cc1cnc2ccc(NCc3ccccn3)nn12` [Example 15, 3-Methyl-N-(pyridin-2-ylmethyl)imidazo[1,2-b]pyridazin-6-amine hydrochloride] gave an IC50 (ROCK 2; [1]) of 16 µM and an IC50 (ROCK 1) of 67 µM.

`COc1ccc(-c2cnc3ccc(NCc4ccccn4)nn23)cc1` [Example 1, 3-(4-Methoxyphenyl)-N-(pyridin-2-ylmethyl)imidazo[1,2-b]pyridazin-6-amine] was tested, and the IC50 (ROCK 2; [1]) was 69 µM and the IC50 (ROCK 1) was 17 µM.

`CCOCc1cnc2ccc(NCCCN3CCOCC3)nn12` [Example 31, 3-(Ethoxymethyl)-N-(3-morpholinopropyl)imidazo[1,2-b]pyridazin-6-amine hydrocloride] gave an IC50 (ROCK 2; [1]) greater than 100 µM and an IC50 (ROCK 1) greater than 100 µM.

`c1cn2nc(NCCCN3CCOCC3)ccc2n1` [Example 35, N-(3-Morpholinopropyl)imidazo[1,2-b]pyridazin-6-amine hydrochloride] showed an IC50 (ROCK 2; [1]) greater than 100 µM and an IC50 (ROCK 1) greater than 100 µM.

`CCCC/C=C/c1cnc2ccc(NC(CC)CO)nn12` (centres unmarked) [Example 10, (E)-2-(3-(Hex-1-enyl)imidazo[1,2-b]pyridazin-6-ylamino)butan-1-ol] showed an IC50 (ROCK 2; [1]) greater than 100 µM and an IC50 (ROCK 1) of 78 µM.

With `CCC/C=C/c1cnc2ccc(NCCCN3CCOCC3)nn12` [Example 18, (E)-N-(3-Morpholinopropyl)-3-(pent-1-enyl)imidazo[1,2-b]pyridazin-6-amine hydrochloride] the IC50 (ROCK 2; [1]) was 88 µM and the IC50 (ROCK 1) was 43 µM.

Work on `Cc1cnc2ccc(NCCCN3CCOCC3)nn12` [Example 16, 3-Methyl-N-(3-morpholinopropyl)imidazo[1,2-b]pyridazin-6-amine fumarate] yielded an IC50 (ROCK 2; [1]) greater than 100 µM and an IC50 (ROCK 1) greater than 100 µM.

Molecule `COCc1cnc2ccc(NCCCN3CCOCC3)nn12` [Example 30, 3-(Methoxymethyl)-N-(3-morpholinopropyl)imidazo[1,2-b]pyridazin-6-amine hydrochloride] has an IC50 (ROCK 2; [1]) greater than 100 µM and an IC50 (ROCK 1) greater than 100 µM.

In the case of `COCc1cnc2ccc(NCc3ccccn3)nn12` [Example 34, hydrochloride], the IC50 (ROCK 2; [1]) is reported as greater than 100 µM and the IC50 (ROCK 1) is reported as greater than 100 µM.

`c1ccc(CNc2ccc3nccn3n2)nc1` [Example 33, N-(Pyridin-2-ylmethyl)imidazo[1,2-b]pyridazin-6-amine hydrochloride] showed an IC50 (ROCK 2; [1]) of 13 µM and an IC50 (ROCK 1) greater than 100 µM.

With `CCCCC#Cc1cnc2ccc(NCc3ccccn3)nn12` [Example 28, 3-(Hex-1-ynyl)-N-(pyridin-2-ylmethyl)imidazo[1,2-b]pyridazin-6-amine hydrochloride] the IC50 (ROCK 2; [1]) was greater than 100 µM and the IC50 (ROCK 1) was greater than 100 µM.

Work on `CCCCC/C=C/c1cnc2ccc(NCCCN3CCOCC3)nn12` [Example 22, (E)-3-(Hept-1-enyl)-N-(3-morpholinopropyl)imidazo[1,2-b]pyridazin-6-amine hydrochloride] yielded an IC50 (ROCK 2; [1]) of 120 µM and an IC50 (ROCK 1) of 38 µM.

For `CCCNc1ccc2ncc(-c3cc(C)cs3)n2n1` [Example 4, 3-(4-Methylthiophen-2-yl)-N-propylimidazo[1,2-b]pyridazin-6-amine], the IC50 (ROCK 2; [1]) was greater than 100 µM and the IC50 (ROCK 1) was greater than 100 µM.

With `c1cc(-c2cnc3ccc(N4CCCNCC4)nn23)ccn1` [Example 54, 6-(1,4-Diazepan-1-yl)-3-pyridin-4-yl-imidazo [1,2-b]pyridazine hydrochloride] the IC50 (ROCK 2; [1]) was 0.33 µM and the IC50 (ROCK 1) was 0.93 µM.

With `CCCC/C=C/c1cnc2ccc(NCc3cccnc3)nn12` [Example 45, (E)-3-(Hex-1-enyl)-N-(pyridin-3-ylmethyl)imidazo[1,2-b]pyridazin-6-amine] the IC50 (ROCK 2; [1]) was 4.7 µM and the IC50 (ROCK 1) was 2.3 µM.

`Clc1cnc2ccc(NCc3ccccn3)nn12` [Example 13, 3-Chloro-N-(pyridin-2-ylmethyl)imidazo[1,2-b]pyridazin-6-amine] showed an IC50 (ROCK 2; [1]) of 17 µM and an IC50 (ROCK 1) of 25 µM.
